Drawing on patent publication US20110044943A1, “Anti-Viral Compounds, Compositions, And Methods Of Use” (priority 2007, published 2011), this text covers inhibition for 1 compound.

This assay in a line: Replicon Assay (luciferase, ET cell line). Type of assay: cell-based, HCV. The note with it: Hepatitis C virus; tested at 10 μM; inhibition of replication relative to no compound control; luciferase 48-72 hours. The text has this:
A cell line, ET (Huh-lucubineo-ET) was used for screening of compounds, or pharmaceutically acceptable salts or solvates, described herein for inhibition of HCV RNA dependent RNA polymerase. The ET cell line was stably transfected with RNA transcripts harboring a I389luc-ubi-neo/NS3-3′/ET; replicon with firefly luciferase-ubiquitin-neomycin phosphotransferase fusion protein and EMCV-IRES driven NS3-5B polyprotein containing the cell culture adaptive mutations (E1202G; T1280I; K1846T) (Krieger at al, 2001 and unpublished). The ET cells were grown in DMEM, supplemented with 10% fetal calf serum, 2 mM Glutamine, Penicillin (100 IU/mL)/Streptomycin (100 μg/mL), 1× nonessential amino acids, and 250 μg/mL G418 (“Geneticin”). They were all available through Life Technologies (Bethesda, Md.). The cells were plated at 0.5-1.0×10^4 cells/well in the 96 well plates and incubated for 24 hrs before adding the test compounds. […] Luciferase activity was measured 48-72 hours later by adding a lysis buffer and the substrate (Catalog number Glo-lysis buffer E2661 and Bright-Glo luciferase system E2620 Promega, Madison, Wis.). […] Under the same condition, cytotoxicity of the compounds was determined using cell proliferation reagent, WST-1 (Roche, Germany). […] EC50 and similarly TC50 values were calculated by fitting % inhibition at each concentration to the following equation: […]
(Replicon systems follow genome replication, usually without infectious particles.)

On to `Fc1cccc(-c2nc3cnn(Cc4cc(-c5ccc(Oc6ccccn6)cc5)no4)cc-3n2)c1F` [Compound 217], for which testing at 10 µM gave an inhibition of 85.3%.
